Paper PMC13128454, “Mutant p53 protein accumulation is selectively targetable by proximity-inducing drugs” (Nature Chemical Biology, 2025)
“And” between values parts separate entries of the source, which are not always exact repeats. Equal entries are not always repeated. Where two headings read alike, the source gives them in different places.

Tests used:
Assay type in all cases: cell-based
[1] = system: Halo–p53-Y220C ΔTAD–mCherry 293T cells; assay: annexin–PI staining; settings: for P3_avg (P3 = early apoptotic) / P5_avg (P5 = late apoptotic): Cell_Line Y220C, proportion of cells; for avgprop_P3 / avgprop_P4 / avgprop_P5 / avgprop_P2 / P2_viable / P3_AnnexinPos_PIneg / P4_PIpos_AnnexinNeg / P5_PIpos_Annexinpos / prop_P3 / prop_P4 / prop_P5 / prop_P2: Y220C; for avgprop_P3: average proportion AnnexinPos PIneg; for avgprop_P4: average proportion PIpos AnnexinNeg; for avgprop_P5: average proportion PIpos Annexinpos; for avgprop_P2: average proportion viable; for P2_viable / P3_AnnexinPos_PIneg / P4_PIpos_AnnexinNeg / P5_PIpos_Annexinpos: event count; for P2_viable / P3_AnnexinPos_PIneg / P4_PIpos_AnnexinNeg / P5_PIpos_Annexinpos / prop_P3 / prop_P4 / prop_P5 / prop_P2: single replicate; for prop_P3: proportion AnnexinPos PIneg; for prop_P4: proportion PIpos AnnexinNeg; for prop_P5: proportion PIpos Annexinpos; for prop_P2: proportion viable
Protocol: (§1) Cells were plated in six-well plates and treated with varying concentrations of compounds for 1 day. Cells were stained with annexin V–AF488 and PI following the manufacturer’s instructions (Thermo Fisher, V13241) and analyzed by flow cytometry (Beckman CytoFLEX LX), using untreated cells to establish gates.

parental 293T cells [2] = assay: annexin–PI staining; settings: for P3_avg (P3 = early apoptotic) / P5_avg (P5 = late apoptotic): Cell_Line WT, proportion of cells; for avgprop_P3 / avgprop_P4 / avgprop_P5 / avgprop_P2 / P2_viable / P3_AnnexinPos_PIneg / P4_PIpos_AnnexinNeg / P5_PIpos_Annexinpos / prop_P3 / prop_P4 / prop_P5 / prop_P2: WT; for avgprop_P3: average proportion AnnexinPos PIneg; for avgprop_P4: average proportion PIpos AnnexinNeg; for avgprop_P5: average proportion PIpos Annexinpos; for avgprop_P2: average proportion viable; for P2_viable / P3_AnnexinPos_PIneg / P4_PIpos_AnnexinNeg / P5_PIpos_Annexinpos: event count; for P2_viable / P3_AnnexinPos_PIneg / P4_PIpos_AnnexinNeg / P5_PIpos_Annexinpos / prop_P3 / prop_P4 / prop_P5 / prop_P2: single replicate; for prop_P3: proportion AnnexinPos PIneg; for prop_P4: proportion PIpos AnnexinNeg; for prop_P5: proportion PIpos Annexinpos; for prop_P2: proportion viable
Protocol: as §1

[3] = system: Halo–p53-Y220C ΔTAD–mCherry 293T cells; assay: cell-cycle analysis (DNA content, DAPI flow cytometry); set-up: 4N / 8N / Right_of_Gate1 (replicates) / Right_of_Gate2 (replicates) / 2N: unit not given here; settings: Y220C, 1 day
Protocol: (§2) Cells were split into a 10-cm dish at low confluency (20%) and grown overnight. Cells were synchronized using overnight treatment with palbociclib (150 nM), washed and split into a six-well plate for treatment with compound for 24 h. Cells were harvested by trypsinization, washed twice with cold 1× PBS, fixed by dropwise addition of ice-cold 70% ethanol while vortexing and incubated overnight (4 °C). Fixed samples were centrifuged at 1,000g for 5 min and 70% ethanol was removed. Cells were washed twice with 1× PBS + 1% BSA before DNA labeling with 1 µg ml^−1 DAPI for 10 min at room temperature, before being analyzed for DNA content by flow cytometry (Beckman CytoFLEX LX).

parental 293T cells [4] = assay: as above; settings: WT, 1 day
Protocol: as §2

[5] = viability with doxycycline-inducible construct; settings: human, read-out: mean_norm (normalized viability)
Protocol: (§3) Cells were plated in 384-well plates (typically 1,500 cells per well) with varying concentrations of compounds, with a total volume of 50 μl per well. CTG reagent was added (25 μl) to the solutions, mixed and read out using an EnVision 2105 multimode plate reader.

[6] = system: 293T cells expressing a dox inducible Halo–p53-Y220C ΔTAD–mCherry; assay: viability with doxycycline-inducible construct
Protocol: as §3

[7] = Conc 0.38 (unit not given; p53-01 in μM, BI2536 in nM)
[8] = Conc 0.75 (unit not given; p53-01 in μM, BI2536 in nM)
[9] = Conc 1.50 (unit not given; p53-01 in μM, BI2536 in nM)
[10] = Conc 10.00 (unit not given; per b27 BI2536 in nM)

Which results are given for CC[C@@H]1C(=O)N(C)c2cnc(Nc3ccc(C(=O)NC4CCN(C)CC4)cc3OC)nc2N1C1CCCC1 [BI2536]?
P3_avg (P3 = early apoptotic) ([1]; Concentration 0.75): 0.03538; P5_avg (P5 = late apoptotic) ([1]; Concentration 0.75): 0.001761; P3_avg (P3 = early apoptotic) ([1]; Concentration 1.5): 0.08725; P5_avg (P5 = late apoptotic) ([1]; Concentration 1.5): 0.03439; avgprop_P3 ([1]; Concentration 0.75): 0.03538; avgprop_P4 ([1]; Concentration 0.75): 0.005431; avgprop_P5 ([1]; Concentration 0.75): 0.001761; avgprop_P2 ([1]; Concentration 0.75): 0.9574; P2_viable ([1]; Concentration 0.75): 2186 and 2152 and 2185; P3_AnnexinPos_PIneg ([1]; Concentration 0.75): 74 and 98 and 69; P4_PIpos_AnnexinNeg ([1]; Concentration 0.75): 7 and 17 and 13; P5_PIpos_Annexinpos ([1]; Concentration 0.75): 5 and 3 and 4; prop_P3 ([1]; Concentration 0.75): 0.03257 and 0.04317 and 0.03038; prop_P4 ([1]; Concentration 0.75): 0.003081 and 0.007489 and 0.005724; prop_P5 ([1]; Concentration 0.75): 0.002201 and 0.001322 and 0.001761; prop_P2 ([1]; Concentration 0.75): 0.9621 (2×) and 0.948; avgprop_P3 ([1]; Concentration 1.5): 0.08725; avgprop_P4 ([1]; Concentration 1.5): 0.1027; avgprop_P5 ([1]; Concentration 1.5): 0.03439; avgprop_P2 ([1]; Concentration 1.5): 0.7757; P2_viable ([1]; Concentration 1.5): 1282 and 1336 and 510; P3_AnnexinPos_PIneg ([1]; Concentration 1.5): 163 and 159 and 47; P4_PIpos_AnnexinNeg ([1]; Concentration 1.5): 201 and 160 and 62; P5_PIpos_Annexinpos ([1]; Concentration 1.5): 59 and 56 and 23; prop_P3 ([1]; Concentration 1.5): 0.0956 and 0.09293 and 0.07321; prop_P4 ([1]; Concentration 1.5): 0.1179 and 0.09351 and 0.09657; prop_P5 ([1]; Concentration 1.5): 0.0346 and 0.03273 and 0.03583; prop_P2 ([1]; Concentration 1.5): 0.7519 and 0.7808 and 0.7944; P3_avg (P3 = early apoptotic) (parental 293T cells [2]; Concentration 0.75): 0.04079; P5_avg (P5 = late apoptotic) (parental 293T cells [2]; Concentration 0.75): 0.01489; P3_avg (P3 = early apoptotic) (parental 293T cells [2]; Concentration 1.5): 0.1126; P5_avg (P5 = late apoptotic) (parental 293T cells [2]; Concentration 1.5): 0.03242; avgprop_P3 (parental 293T cells [2]; Concentration 0.75): 0.04079; avgprop_P4 (parental 293T cells [2]; Concentration 0.75): 0.03008; avgprop_P5 (parental 293T cells [2]; Concentration 0.75): 0.01489; avgprop_P2 (parental 293T cells [2]; Concentration 0.75): 0.9142; P2_viable (parental 293T cells [2]; Concentration 0.75): 2015 and 2037 and 2022; P3_AnnexinPos_PIneg (parental 293T cells [2]; Concentration 0.75): 93 and 83 and 95; P4_PIpos_AnnexinNeg (parental 293T cells [2]; Concentration 0.75): 62 and 58 and 80; P5_PIpos_Annexinpos (parental 293T cells [2]; Concentration 0.75): 28 and 35 and 36; prop_P3 (parental 293T cells [2]; Concentration 0.75): 0.04231 and 0.03751 and 0.04254; prop_P4 (parental 293T cells [2]; Concentration 0.75): 0.02821 and 0.02621 and 0.03583; prop_P5 (parental 293T cells [2]; Concentration 0.75): 0.01274 and 0.01582 and 0.01612; prop_P2 (parental 293T cells [2]; Concentration 0.75): 0.9167 and 0.9205 and 0.9055; avgprop_P3 (parental 293T cells [2]; Concentration 1.5): 0.1126; avgprop_P4 (parental 293T cells [2]; Concentration 1.5): 0.02945; avgprop_P5 (parental 293T cells [2]; Concentration 1.5): 0.03242; avgprop_P2 (parental 293T cells [2]; Concentration 1.5): 0.8255; P2_viable (parental 293T cells [2]; Concentration 1.5): 1572 and 1534 and 1608; P3_AnnexinPos_PIneg (parental 293T cells [2]; Concentration 1.5): 206 and 222 and 215; P4_PIpos_AnnexinNeg (parental 293T cells [2]; Concentration 1.5): 60 and 57 and 51; P5_PIpos_Annexinpos (parental 293T cells [2]; Concentration 1.5): 54 and 71 and 60; prop_P3 (parental 293T cells [2]; Concentration 1.5): 0.1089 and 0.1178 and 0.1112; prop_P4 (parental 293T cells [2]; Concentration 1.5): 0.03171 and 0.03025 and 0.02637; prop_P5 (parental 293T cells [2]; Concentration 1.5): 0.02854 and 0.03769 and 0.03102; prop_P2 (parental 293T cells [2]; Concentration 1.5): 0.8309 and 0.8142 and 0.8314; 2N [3, 7]: 59.64; 4N [3, 7]: 39.45; 8N [3, 7]: 0.91; Right_of_Gate1 (replicates) [3, 7]: 40.36 and 39.92 and 40.00; Right_of_Gate2 (replicates) [3, 7]: 0.91 and 0.89 and 1.00; 2N [3, 8]: 59.25; 4N [3, 8]: 40.16; 8N [3, 8]: 0.59; Right_of_Gate1 (replicates) [3, 8]: 40.75 and 40.54 and 40.62; Right_of_Gate2 (replicates) [3, 8]: 0.59 and 0.51 and 0.57; 2N [3, 9]: 58.82; 4N [3, 9]: 40.66; 8N [3, 9]: 0.52; Right_of_Gate1 (replicates) [3, 9]: 41.18 and 41.58 and 39.89; Right_of_Gate2 (replicates) [3, 9]: 0.52 (2×) and 0.50; 2N [3, 10]: 2.81; 4N [3, 10]: 3.65; 8N [3, 10]: 93.54; Right_of_Gate1 (replicates) [3, 10]: 97.19 and 96.75 and 95.65; Right_of_Gate2 (replicates) [3, 10]: 93.54 and 93.93 and 86.65; 2N (parental 293T cells [4]; [7]): 60.20; 4N (parental 293T cells [4]; [7]): 37.88; Right_of_Gate1 (replicates) (parental 293T cells [4]; [7]): 39.80 and 40.72 and 40.28; Right_of_Gate2 (replicates) (parental 293T cells [4]; [7]): 1.92 and 1.75 and 1.63; 2N (parental 293T cells [4]; [8]): 60.97; 4N (parental 293T cells [4]; [8]): 37.16; Right_of_Gate1 (replicates) (parental 293T cells [4]; [8]): 39.03 and 39.73 and 39.74; Right_of_Gate2 (replicates) (parental 293T cells [4]; [8]): 1.87 and 1.62 and 1.66; 2N (parental 293T cells [4]; [9]): 59.07; 4N (parental 293T cells [4]; [9]): 38.46; Right_of_Gate1 (replicates) (parental 293T cells [4]; [9]): 40.93 and 41.63 and 42.56; Right_of_Gate2 (replicates) (parental 293T cells [4]; [9]): 2.47 and 2.39 and 2.53; 2N (parental 293T cells [4]; [10]): 2.57; 4N (parental 293T cells [4]; [10]): 4.74; Right_of_Gate1 (replicates) (parental 293T cells [4]; [10]): 97.43 and 97.32 and 97.36; Right_of_Gate2 (replicates) (parental 293T cells [4]; [10]): 92.69 and 91.65 and 92.21; viability ([5]; dox 100, Concentration 0.0390625): 99%; viability ([5]; dox 100, Concentration 0.078125): 86.5%; viability ([5]; dox 100, Concentration 0.15625): 88.6%; viability ([5]; dox 1000, Concentration 0.0390625): 97.3%; viability ([5]; dox 1000, Concentration 0.078125): 89.3%; viability ([5]; dox 1000, Concentration 0.15625): 88.7%; viability ([5]; dox 1000, Concentration 0.3125): 83%; viability ([5]; dox 1000, Concentration 0.625): 74.2%; viability ([5]; dox 1000, Concentration 1.25): 48.7%; viability ([5]; dox 1000, Concentration 2.5): 18.6%; viability ([5]; dox 1000, Concentration 5): 14.5%; viability ([5]; dox 1000, Concentration 10): 10.7%; change of potency upon doxycycline induction ([6]; dox 0, 100, 1000 ng/mL, 4 days): without impacting the potency; mean_norm (normalized viability) ([6]; dox 0, Concentration 0.0390625): 0.9266; mean_norm (normalized viability) ([6]; dox 0, Concentration 0.078125): 0.8991; mean_norm (normalized viability) ([6]; dox 0, Concentration 0.15625): 0.8734; mean_norm (normalized viability) ([6]; dox 0, Concentration 0.3125): 0.835; mean_norm (normalized viability) ([6]; dox 0, Concentration 0.625): 0.7837; mean_norm (normalized viability) ([6]; dox 0, Concentration 1.25): 0.5152; mean_norm (normalized viability) ([6]; dox 0, Concentration 2.5): 0.218; mean_norm (normalized viability) ([6]; dox 0, Concentration 5): 0.1689; mean_norm (normalized viability) ([6]; dox 0, Concentration 10): 0.1644; mean_norm (normalized viability) ([6]; dox 100, Concentration 0.3125): 0.8537; mean_norm (normalized viability) ([6]; dox 100, Concentration 0.625): 0.6735; mean_norm (normalized viability) ([6]; dox 100, Concentration 1.25): 0.3823; mean_norm (normalized viability) ([6]; dox 100, Concentration 2.5): 0.2022; mean_norm (normalized viability) ([6]; dox 100, Concentration 5): 0.161; mean_norm (normalized viability) ([6]; dox 100, Concentration 10): 0.1435
